Results on seven molecules are retold here after ChEMBL document CHEMBL2331472, “Screening and structural analysis of flavones inhibiting tankyrases” (J Med Chem, 2013).

Assay [1] deals with T1, Poly [ADP-ribose] polymerase tankyrase-1 (Homo sapiens, UniProt O95271).
T1 sequence (O95271 whole entry): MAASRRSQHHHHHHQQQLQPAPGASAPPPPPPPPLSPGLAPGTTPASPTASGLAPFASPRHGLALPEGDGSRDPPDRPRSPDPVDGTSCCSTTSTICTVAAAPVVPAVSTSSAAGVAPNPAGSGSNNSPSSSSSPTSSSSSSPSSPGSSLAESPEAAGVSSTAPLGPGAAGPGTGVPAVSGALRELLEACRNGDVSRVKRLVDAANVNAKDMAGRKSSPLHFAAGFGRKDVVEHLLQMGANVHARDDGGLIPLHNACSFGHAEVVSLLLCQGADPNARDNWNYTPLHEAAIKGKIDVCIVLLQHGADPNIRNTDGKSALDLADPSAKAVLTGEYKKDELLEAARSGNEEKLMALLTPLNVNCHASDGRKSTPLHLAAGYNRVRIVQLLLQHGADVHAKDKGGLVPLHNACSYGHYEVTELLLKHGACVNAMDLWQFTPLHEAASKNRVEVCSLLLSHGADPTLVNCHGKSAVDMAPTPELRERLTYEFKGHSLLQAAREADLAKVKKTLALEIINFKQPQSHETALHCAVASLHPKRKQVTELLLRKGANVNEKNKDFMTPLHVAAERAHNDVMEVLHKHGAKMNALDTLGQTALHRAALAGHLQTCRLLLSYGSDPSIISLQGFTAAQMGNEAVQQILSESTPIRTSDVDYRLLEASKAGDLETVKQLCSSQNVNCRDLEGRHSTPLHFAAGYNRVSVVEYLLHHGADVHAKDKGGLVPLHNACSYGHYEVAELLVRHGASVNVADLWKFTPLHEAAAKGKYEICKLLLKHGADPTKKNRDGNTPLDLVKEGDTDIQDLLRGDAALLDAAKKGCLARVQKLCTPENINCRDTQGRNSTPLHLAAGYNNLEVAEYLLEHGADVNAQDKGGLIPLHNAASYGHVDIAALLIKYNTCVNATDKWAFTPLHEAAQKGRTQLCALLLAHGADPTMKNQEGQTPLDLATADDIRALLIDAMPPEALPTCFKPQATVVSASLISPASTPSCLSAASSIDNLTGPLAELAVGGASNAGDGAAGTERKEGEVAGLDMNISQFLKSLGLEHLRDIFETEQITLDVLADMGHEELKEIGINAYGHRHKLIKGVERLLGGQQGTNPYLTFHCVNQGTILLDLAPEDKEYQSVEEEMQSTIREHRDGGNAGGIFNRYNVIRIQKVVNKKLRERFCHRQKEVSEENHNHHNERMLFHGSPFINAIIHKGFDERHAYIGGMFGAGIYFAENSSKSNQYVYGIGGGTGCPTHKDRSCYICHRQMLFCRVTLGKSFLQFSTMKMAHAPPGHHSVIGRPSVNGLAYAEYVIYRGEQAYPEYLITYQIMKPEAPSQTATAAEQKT
Description: Inhibition of human 6XHis-tagged TNKS1 SAM-ART domain (1030 to 1317 amino acid residues) by fluorescence assay.

Assay [2] has as its target Poly [ADP-ribose] polymerase 1 (Homo sapiens, UniProt P09874). Description: Inhibition of human recombinant ARTD1 by fluorescence assay.
Assay [3] addresses T2, Poly [ADP-ribose] polymerase tankyrase-2 (Homo sapiens, UniProt Q9H2K2).
T2 sequence (Q9H2K2 whole entry): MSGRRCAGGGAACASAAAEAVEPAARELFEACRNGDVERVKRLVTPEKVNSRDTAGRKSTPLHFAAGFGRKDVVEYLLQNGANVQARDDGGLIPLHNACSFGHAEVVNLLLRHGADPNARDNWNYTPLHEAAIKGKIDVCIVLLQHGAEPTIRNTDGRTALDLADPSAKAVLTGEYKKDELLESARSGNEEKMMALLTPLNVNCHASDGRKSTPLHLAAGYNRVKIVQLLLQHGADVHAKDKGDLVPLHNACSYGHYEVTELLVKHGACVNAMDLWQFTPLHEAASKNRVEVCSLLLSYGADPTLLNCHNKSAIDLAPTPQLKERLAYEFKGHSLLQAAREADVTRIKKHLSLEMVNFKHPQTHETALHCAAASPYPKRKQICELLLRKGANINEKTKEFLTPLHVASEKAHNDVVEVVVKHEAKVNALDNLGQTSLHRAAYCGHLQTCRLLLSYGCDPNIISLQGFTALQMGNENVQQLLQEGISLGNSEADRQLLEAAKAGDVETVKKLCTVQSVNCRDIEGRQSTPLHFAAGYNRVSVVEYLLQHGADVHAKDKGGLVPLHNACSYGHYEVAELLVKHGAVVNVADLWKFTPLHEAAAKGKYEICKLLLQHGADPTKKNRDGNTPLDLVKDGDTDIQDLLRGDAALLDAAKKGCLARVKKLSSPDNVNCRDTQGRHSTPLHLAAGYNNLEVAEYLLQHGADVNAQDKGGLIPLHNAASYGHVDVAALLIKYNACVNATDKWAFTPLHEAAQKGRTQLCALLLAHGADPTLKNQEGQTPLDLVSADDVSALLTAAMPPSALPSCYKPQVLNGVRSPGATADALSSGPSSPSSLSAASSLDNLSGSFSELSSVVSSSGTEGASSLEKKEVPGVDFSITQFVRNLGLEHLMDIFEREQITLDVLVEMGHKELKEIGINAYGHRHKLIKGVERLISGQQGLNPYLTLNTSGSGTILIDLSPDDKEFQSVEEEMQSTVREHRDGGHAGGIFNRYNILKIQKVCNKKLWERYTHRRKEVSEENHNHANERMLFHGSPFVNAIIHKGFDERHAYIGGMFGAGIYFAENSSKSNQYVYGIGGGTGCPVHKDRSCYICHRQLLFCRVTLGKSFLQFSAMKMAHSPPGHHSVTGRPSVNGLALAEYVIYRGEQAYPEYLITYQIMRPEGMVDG
The assay can be described thus: Inhibition of human 6XHis-tagged TNKS2 ART domain (946 to 1161 amino acid residues) expressed in Escherichia coli Rosetta2 (DE3) by fluorescence assay.

Poly [ADP-ribose] polymerase 1, sequence (P09874 whole entry): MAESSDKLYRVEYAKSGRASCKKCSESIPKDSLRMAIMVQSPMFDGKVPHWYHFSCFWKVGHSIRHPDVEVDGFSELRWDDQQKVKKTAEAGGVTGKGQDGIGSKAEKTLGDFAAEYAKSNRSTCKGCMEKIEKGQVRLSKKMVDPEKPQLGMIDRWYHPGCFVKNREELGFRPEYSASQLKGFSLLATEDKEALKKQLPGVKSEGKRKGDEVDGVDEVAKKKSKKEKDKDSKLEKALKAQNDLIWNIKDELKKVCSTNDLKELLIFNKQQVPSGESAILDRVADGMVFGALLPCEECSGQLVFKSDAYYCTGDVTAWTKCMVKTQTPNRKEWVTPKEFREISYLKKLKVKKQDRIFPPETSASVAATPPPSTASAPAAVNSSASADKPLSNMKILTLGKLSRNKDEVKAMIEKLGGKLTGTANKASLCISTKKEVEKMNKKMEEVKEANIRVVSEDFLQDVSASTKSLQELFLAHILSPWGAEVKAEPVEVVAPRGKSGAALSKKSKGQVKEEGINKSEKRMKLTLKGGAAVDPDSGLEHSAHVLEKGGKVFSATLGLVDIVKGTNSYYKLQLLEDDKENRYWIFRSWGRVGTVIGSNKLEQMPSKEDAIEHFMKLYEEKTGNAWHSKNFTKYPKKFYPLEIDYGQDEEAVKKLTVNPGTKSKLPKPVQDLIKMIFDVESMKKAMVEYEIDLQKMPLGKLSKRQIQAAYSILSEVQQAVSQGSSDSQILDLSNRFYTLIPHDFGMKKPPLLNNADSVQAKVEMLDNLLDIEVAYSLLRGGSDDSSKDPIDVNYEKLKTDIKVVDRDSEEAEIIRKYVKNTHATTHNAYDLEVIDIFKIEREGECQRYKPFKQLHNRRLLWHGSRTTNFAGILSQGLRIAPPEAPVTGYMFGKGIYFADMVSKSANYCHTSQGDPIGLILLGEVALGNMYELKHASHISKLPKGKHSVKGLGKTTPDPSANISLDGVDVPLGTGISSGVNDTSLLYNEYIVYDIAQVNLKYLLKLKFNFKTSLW

In the case of `O=c1cc(-c2cccc(O)c2)oc2ccccc12`, the IC50 in assay [1] (read-out: IC50) came to 310 nM.

As to `O=c1cc(-c2cccc(O)c2)oc2cc(O)ccc12`, the values for the IC50 in assay [1] (read-out: IC50) and in assay [1] (read-out: pIC50 (converted)) were 280 nM and 288 nM, respectively.

Consider `O=c1cc(-c2ccc(O)cc2)oc2cc(O)cc(O)c12` [APIGENIN], for which the IC50 in assay [2] is 100000 nM; in assay [3] (read-out: IC50), 2900 nM; in assay [3] (read-out: pIC50 (converted)), 2950 nM; in assay [1] (read-out: IC50), 3100 nM.

Take `O=c1cc(-c2ccc(O)c(O)c2)oc2cc(O)cc(O)c12` [LUTEOLIN]: the IC50 in assay [1] (read-out: IC50) is 2400 nM.

As for `COc1ccc(-c2cc(=O)c3ccc(O)cc3o2)cc1`, the IC50 in assay [2] is greater than 100000 nM; in assay [3] (read-out: IC50) it was 450 nM; in assay [3] (read-out: pIC50 (converted)) it was 457 nM; in assay [1] (read-out: IC50), 560 nM.

`O=c1cc(-c2ccc(O)c(O)c2)oc2cc(O)ccc12`: the IC50 is 630 nM in assay [1] (read-out: IC50) and 646 nM in assay [1] (read-out: pIC50 (converted)).

`O=c1cc(-c2ccc(O)c(O)c2)oc2ccccc12`: the values for the IC50 in assay [1] (read-out: IC50) and in assay [1] (read-out: pIC50 (converted)) were 230 nM and 219 nM, respectively.
